In article PMC3923901 (Journal of structural and functional genomics, 2013):

Tests used:
[1] = biological target: T1, SACOL2570 (putative galactoside O-acetyltransferase) (Staphylococcus aureus, UniProt Q5HCZ5); test: ITC, […] stoichiometry; assay type: binding
[2] = biological target: T1, SACOL2570 (putative galactoside O-acetyltransferase); test: crystal structure; assay type: binding
[3] = biological target: the molecule itself; test: crystal structure

CC(=O)SCCNC(=O)CCNC(=O)[C@H](O)C(C)(C)COP(=O)(O)OP(=O)(O)OC[C@H]1O[C@@H](n2cnc3c(N)ncnc32)[C@H](O)[C@@H]1OP(=O)(O)O [AcCoA]
Kd [1]: 460 ± 35 µM

CC(C)(COP(=O)(O)OP(=O)(O)OC[C@H]1O[C@@H](n2cnc3c(N)ncnc32)[C@H](O)[C@@H]1OP(=O)(O)O)[C@@H](O)C(=O)NCCC(=O)NCCS [CoA]
Kd [2]: 660 ± 13 µM

B1: putative galactoside O-acetyltransferase SACOL2570 from Staphylococcus aureus subsp. COL (enzyme)
chain: MTEKEKMLAEKWYDANFDQYLINERARAKDICFELNHTRPSATNKRKELIDQLFQTTTDNVSISIPFDTDYGWNVKLGKNVYVNTNCYFMDGGQITIGDNVFIGPNCGFYTATHPLNFHHRNEGFEKAGPIHIGSNTWFGGHVAVLPGVTIGEGSVIGAGSVVTKDIPPHSLAVGNPCKVVRKIDNDLPSETLNDETIK
modifications: selenomethionine (Se-Met-SACOL2570) in the protein of the apo crystals (PDB 3FTT) only
stoichiometry N [3]: 3
